For 19 compounds, IC50 results are on record in US20220160747A1, “PHARMACEUTICAL COMPOSITION COMPRISING NOVEL AZOLOPYRIMIDINE HETEROCYCLIC COMPOUND AS ACTIVE INGREDIENT” (KOREA RESEARCH INSTITUTE OF CHEMICAL TECHNOLOGY, priority 2019, published 2022).

As a reminder, the IC50 is the concentration that inhibits the measured activity by half.

The target of assay [1] is T1, human CD39 recombinant protein (Homo sapiens, UniProt P49961).
T1 construct: made in house
T1 sequence (P49961 1-510): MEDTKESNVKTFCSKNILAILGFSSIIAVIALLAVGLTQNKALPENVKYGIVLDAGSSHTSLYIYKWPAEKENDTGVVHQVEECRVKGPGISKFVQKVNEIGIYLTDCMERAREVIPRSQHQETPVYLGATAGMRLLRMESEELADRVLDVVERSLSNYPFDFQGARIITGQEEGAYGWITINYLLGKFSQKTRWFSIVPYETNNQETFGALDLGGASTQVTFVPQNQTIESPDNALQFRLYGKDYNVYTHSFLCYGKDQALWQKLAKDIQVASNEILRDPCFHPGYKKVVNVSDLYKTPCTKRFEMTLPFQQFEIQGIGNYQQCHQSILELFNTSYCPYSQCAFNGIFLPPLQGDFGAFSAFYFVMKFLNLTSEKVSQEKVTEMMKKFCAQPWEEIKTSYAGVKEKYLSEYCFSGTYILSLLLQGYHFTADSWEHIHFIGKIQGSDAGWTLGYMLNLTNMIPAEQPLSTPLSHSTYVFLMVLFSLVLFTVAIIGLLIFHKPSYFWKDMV
In words: Enzyme assay, CD39 (Malachite green kit). The following applies: AMP added, incubation 30 minutes. The format is biochemical. As for the experimental part: (§1) Referring to a method described in a reference document [Front Pharmacol. 2018 Mar. 1; 9:153], an enzyme assay was performed. Each of human CD73 and CD39 recombinant proteins was produced and then purified and isolated, and used in an enzyme assay. A buffer was basically 25 mM Tris, 5 mM MgCl2, pH 7.5 as an assay buffer, and for assay, human CD73 and CD39 recombinant protein were diluted at an appropriate concentration, respectively, in the assay buffer, adenosine monophosphate (AMP) (Sigma, Catalog #A1752) at an appropriate concentration was added, and then incubation was performed for 30 minutes. At the time, the azolopyrimidine heterocyclic compounds of the present invention were treated for each concentration and incubated together, thereby measuring a degree of inhibiting activity of CD73 or CD39.

Assay [2] deals with T2, human CD73 recombinant protein (Homo sapiens, UniProt P21589).
T2 construct: made in house
T2 sequence (P21589 27-549): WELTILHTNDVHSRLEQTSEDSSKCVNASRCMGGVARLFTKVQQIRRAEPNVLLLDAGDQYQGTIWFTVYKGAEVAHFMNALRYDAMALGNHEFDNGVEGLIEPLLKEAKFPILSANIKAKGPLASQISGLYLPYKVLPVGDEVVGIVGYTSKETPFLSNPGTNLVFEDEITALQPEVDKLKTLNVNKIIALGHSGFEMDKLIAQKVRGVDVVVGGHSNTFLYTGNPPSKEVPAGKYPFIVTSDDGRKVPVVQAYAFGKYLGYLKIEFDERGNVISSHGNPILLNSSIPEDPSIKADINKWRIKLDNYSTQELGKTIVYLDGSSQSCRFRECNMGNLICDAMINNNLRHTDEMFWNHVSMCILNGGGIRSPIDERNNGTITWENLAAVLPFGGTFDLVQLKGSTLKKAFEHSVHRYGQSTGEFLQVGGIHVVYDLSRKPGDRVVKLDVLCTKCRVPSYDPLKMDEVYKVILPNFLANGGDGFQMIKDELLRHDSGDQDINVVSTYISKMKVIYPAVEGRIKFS
In words: Enzyme assay, CD73 (Malachite green kit). The format is biochemical. The following applies: AMP added, incubation 30 minutes. As for the experimental part:
as §1

Turning to `CN(Cc1cccc(F)c1)c1ncnc2c1ncn2[C@@H]1O[C@H](COCc2ccc3ccccc3c2)[C@H]2OC(C)(C)O[C@H]21` [Compound 16, 9-((3aR,4R,6R,6aR)-2,2-dimethyl-6-((naphthalen-2-ylmethoxy)methyl)tetrahydrofuro[3,4-d][1,3]dioxol-4-yl)-N-(3-fluorobenzyl)-N-methyl-9H-purin-6-amine], the results for the IC50 in assay [1] and in assay [2] were 5.1 to 15 µM and 1.1 to 5 µM, respectively.

`CN(Cc1cccc(F)c1)c1ncnc2c1ncn2[C@@H]1O[C@H](COCc2ccc3ccccc3c2Br)[C@@H](O)[C@H]1O` [Compound 19, (2R,3S,4R,5R)-2-(((1-bromonaphthalen-2-yl)methoxy)methyl)-5-(6-((3-fluorobenzyl)(methyl)amino)-9H-purin-9-yl)tetrahydrofuran-3,4-diol]: the IC50 in assay [1] and in assay [2] was 1.1 to 5 µM in each case.

In the case of `O[C@@H]1[C@H](O)[C@@H](COC(c2ccccc2)(c2ccccc2)c2ccccc2)O[C@H]1n1cnc2c(Cl)ncnc21` [Compound 22, (2R,3R,4S,5R)-2-(6-chloro-9H-purin-9-yl)-5-((trityloxy)methyl)tetrahydrofuran-3,4-diol], the IC50 in assay [1] is 5.1 to 15 µM; in assay [2] it was less than 1 µM.

`CN(Cc1cccc(F)c1)c1ncnc2c1ncn2[C@@H]1O[C@H](COCc2ccc3ccccc3c2)[C@@H](O)[C@H]1O` [Compound 18, (2R,3R,4S,5R)-2-(6-((3-fluorobenzyl)(methyl)amino)-9H-purin-9-yl)-5-((naphthalen-2-ylmethoxy)methyl)tetrahydrofuran-3,4-diol]: the results for the IC50 in assay [1] and in assay [2] were 15.1 to 30 µM and 1.1 to 5 µM, respectively.

Take `CN(Cc1cccc(F)c1)c1ncnc2c1ncn2[C@@H]1O[C@H](COC(=O)c2ccccc2)[C@@H](O)[C@H]1O` [Compound 9, ((2R,3S,4R,5R)-5-(6-((3-fluorobenzyl)(methyl)amino)-9H-purin-9-yl)-3,4-dihydroxytetrahydrofuran-2-yl)methyl benzoate]: in assay [2], the IC50 was 5.1 to 15 µM.

On to `CN(Cc1cccc(F)c1)c1ncnc2c1ncn2[C@@H]1O[C@H](CO[Si](c2ccccc2)(c2ccccc2)C(C)(C)C)[C@@H](O)[C@H]1O` [Compound 8, (2R,3S,4R,5R)-2-(((tert-butyldiphenylsilyl)oxy)methyl)-5-(6-((3-fluorobenzyl)(methyl)amino)-9H-purin-9-yl)tetrahydrofuran-3,4-diol], for which the IC50 in assay [1] is 1.1 to 5 µM; in assay [2], less than 1 µM.

Consider `COc1ccc(C(OC[C@H]2O[C@@H](n3cnc4c(Cl)ncnc43)[C@H](O)[C@@H]2O)(c2ccccc2)c2ccc(OC)cc2)cc1` [Compound 23, (2R,3S,4R,5R)-2-((bis(4-methoxyphenyl) (phenyl)methoxy)methyl)-5-(6-chloro-9H-purin-9-yl)tetrahydrofuran-3,4-diol], for which the IC50 in assay [1] is no less than 30 µM; in assay [2], 1.1 to 5 µM.

Regarding `CN(Cc1cccc(F)c1)c1ncnc2c1ncn2[C@@H]1O[C@H](COC(=O)Nc2ccccc2)[C@@H](O)[C@H]1O` [Compound 6, ((2R,3S,4R,5R)-5-(6-((3-fluorobenzyl)(methyl)amino)-9H-purin-9-yl)-3,4-dihydroxytetrahydrofuran-2-yl)methyl phenylcarbamate], in assay [2], the IC50 lay within 5.1 to 15 µM.

Take `CN(Cc1cccc(F)c1)c1ncnc2c1ncn2[C@@H]1O[C@H](COCc2ccc(S(F)(F)(F)(F)F)cc2)[C@@H](O)[C@H]1O` [Compound 15, (2R,3R,4S,5R)-2-(6-((3-fluorobenzyl)(methyl)amino)-9H-purin-9-yl)-5-(((4-(pentafluorothio)benzyl)oxy)methyl)tetrahydrofuran-3,4-diol]: the IC50 in assay [1] and in assay [2] was 1.1 to 5 µM in each case.

As to `CN(Cc1cccc(F)c1)c1ncnc2c1ncn2[C@@H]1O[C@H](COC(=S)Nc2ccccc2)[C@H]2OC(C)(C)O[C@H]21` [Compound 4, O-(((3aR,4R,6R,6aR)-6-(6-((3-fluorobenzyl)(methyl)amino)-9H-purin-9-yl)-2,2-dimethyltetrahydrofuro[3,4-d][1,3]dioxol-4-yl)methyl) phenylcarbamothioate], the IC50 in assay [2] fell in the range of 15.1 to 30 µM.

As for `CN(Cc1cccc(F)c1)c1ncnc2c1ncn2[C@@H]1O[C@H](COC(c2ccccc2)(c2ccccc2)c2ccccc2)[C@@H](O)[C@H]1O` [Compound 24, (2R,3R,4S,5R)-2-(6-((3-fluorobenzyl)(methyl)amino)-9H-purin-9-yl)-5-((trityloxy)methyl)tetrahydrofuran-3,4-diol], the IC50 is 1.1 to 5 µM in assay [1] and less than 1 µM in assay [2].

As for `COc1ccc(C(OC[C@H]2O[C@@H](n3cnc4c(N(C)Cc5cccc(F)c5)ncnc43)[C@H](O)[C@@H]2O)(c2ccccc2)c2ccc(OC)cc2)cc1` [Compound 25, (2R,3S,4R,5R)-2-((bis(4-methoxyphenyl) (phenyl)methoxy)methyl)-5-(6-((3-fluorobenzyl)(methyl)amino)-9H-purin-9-yl)tetrahydrofuran-3,4-diol], the half-inhibitory concentration (IC50) in assay [1] and in assay [2] was less than 1 µM in each case.

In the case of `CN(Cc1cccc(F)c1)c1ncnc2c1ncn2[C@@H]1O[C@H](CO[Si](c2ccccc2)(c2ccccc2)c2ccccc2)[C@@H](O)[C@H]1O` [Compound 21, (2R,3R,4S,5R)-2-(6-((3-fluorobenzyl)(methyl)amino)-9H-purin-9-yl)-5-(((triphenylsilyl)oxy)methyl)tetrahydrofuran-3,4-diol], the IC50 in assay [1] is 1.1 to 5 µM; in assay [2], less than 1 µM.

As to `CN(Cc1cccc(F)c1)c1ncnc2c1ncn2[C@@H]1O[C@H](CO[Si](C)(C)C(C)(C)C)[C@@H](O)[C@H]1O` [Compound 20, (2R,3S,4R,5R)-2-(((tert-butyldimethylsilyl)oxy)methyl)-5-(6-((3-fluorobenzyl)(methyl)amino)-9H-purin-9-yl)tetrahydrofuran-3,4-diol], the IC50 in assay [1] and in assay [2] was 1.1 to 5 µM in each case.

As to `CN(Cc1cccc(F)c1)c1ncnc2c1ncn2[C@@H]1O[C@H](COC(=O)Nc2ccccc2)[C@H]2OC(C)(C)O[C@H]21` [Compound 3, ((3aR,4R,6R,6aR)-6-(6-((3-fluorobenzyl)(methyl)amino)-9H-purin-9-yl)-2,2-dimethyltetrahydrofuro[3,4-d][1,3]dioxol-4-yl)methyl phenylcarbamate], the IC50 in assay [2] is 15.1 to 30 µM.

Regarding `CN(Cc1cccc(F)c1)c1ncnc2c1ncn2[C@@H]1O[C@H](COC(=S)Nc2ccccc2)[C@@H](O)[C@H]1O` [Compound 7, O-(((2R,3S,4R,5R)-5-(6-((3-fluorobenzyl)(methyl)amino)-9H-purin-9-yl)-3,4-dihydroxytetrahydrofuran-2-yl)methyl) phenylcarbamothioate], the IC50 in assay [1] was no less than 30 µM; in assay [2], 1.1 to 5 µM.

For the compound `CN(Cc1cccc(F)c1)c1ncnc2c1ncn2[C@@H]1O[C@H](COCc2ccc(-c3ccccc3)cc2)[C@@H](O)[C@H]1O` [Compound 13, (2R,3S,4R,5R)-2-(([1,1′-biphenyl]-4-ylmethoxy)methyl)-5-(6-((3-fluorobenzyl)(methyl)amino)-9H-purin-9-yl)tetrahydrofuran-3,4-diol], the IC50 in assay [1] was 1.1 to 5 µM; in assay [2] it was less than 1 µM.

As to `CN(Cc1cccc(F)c1)c1ncnc2c1ncn2[C@@H]1O[C@H](COCc2ccc3ccccc3c2Br)[C@H]2OC(C)(C)O[C@H]21` [Compound 17, 9-((3aR,4R,6R,6aR)-6-(((1-bromonaphthalen-2-yl)methoxy)methyl)-2,2-dimethyltetrahydrofuro[3,4-d][1,3]dioxol-4-yl)-N-(3-fluorobenzyl)-N-methyl-9H-purin-6-amine], the IC50 in assay [1] and in assay [2] was 1.1 to 5 µM in each case.

In the case of `CN(Cc1cccc(F)c1)c1ncnc2c1ncn2[C@@H]1O[C@H](CO[Si](c2ccccc2)(c2ccccc2)C(C)(C)C)[C@H]2OC(C)(C)O[C@H]21` [Compound 1, 9-((3aR,4R,6R,6aR)-6-(((tert-butyldiphenylsilyl)oxy)methyl)-2,2-dimethyltetrahydrofuro[3,4-d][1,3]dioxol-4-yl)-N-(3-fluorobenzyl)-N-methyl-9H-purin-6-amine], in assay [2], the IC50 is no less than 30 µM.
